Results on 11 compounds are retold here after patent publication US20230091047A1 (priority 2019, published 2023).

Series [1] has as its system HBV (HepG2.117 cell line, inducibly HBV producing). The series is described as follows: Anti-HBV activity: intracellular HBV DNA by real-time PCR in HepG2.117 cells after 3 days of treatment. It counts as cell-based, hepatitis B virus. The essentials: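 Inducible HBV-producing HepG2.117 line (Tet-off); 3-day exposure to serially diluted compound after induction; real-time PCR of intracellular viral DNA.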
For orientation: Quantitative PCR measures a nucleic acid by following its amplification.

In another series the test system is HepG2 cells. The series is described as follows: in vitro. The class given is cell-based. As to conditions: HepG2 or HepG2.117 cells, mean value, read-out: CC50 (μM, mean value). The essentials:
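Luminescent ATP quantitation served as the viability endpoint following a 3- or 4-day incubation with test compounds.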

The mark [2] stands for this setting: HepG2.117 cells, intracellular HBV DNA by real-time PCR, 3 days of treatment, mean value; read-out: EC50 (μM, mean value).
The mark [3] stands for this setting: ATPlite, 3-days incubation (not marked with *).
The mark [4] stands for this setting: HepG2.117 cells, 3 days of treatment, intracellular HBV DNA by real-time PCR; mean value; read-out: EC50 (μM, mean value).
Where [5] appears, read: 3-days incubation (unmarked values), ATPlite.

Where two headings read alike, the source gives them in different places.

Broadly, the EC50 is the midpoint of the concentration-response curve. By CC50 is commonly meant the concentration giving 50% cytotoxicity. `COc1ccc([C@H](C)Nc2nc3c(c(=O)n2-c2ccc(NC(C)=O)cc2)C[C@@H](C)N(C(=O)c2ccc(Cl)c(Cl)c2)C3)cc1` (single isomer, unassigned) [Compound C410a]: the EC50 in series [1] (setting [2]) is 0.95 µM. Besides, the CC50 in the series with HepG2 cells (setting [3]) was over 50 µM.

With `CNC(=O)c1ccc(-n2c(NC(C)C)nc3c(c2=O)C[C@@H](C)N(C(=O)c2ccc(Cl)c(Cl)c2)C3)c(C(C)C)c1` (single isomer, unassigned) [Compound C420b], the EC50 in series [1] (setting [2]) came out at 0.35 µM. Further, in the series on HepG2 cells (setting [3]), the CC50 was found to be 23.5 µM.

In the case of `CNC(=O)c1ccc(-n2c(N[C@H]3C[C@@H]3c3ccc(OC)cc3)nc3c(c2=O)C[C@@H](C)N(C(=O)c2ccc(Cl)c(Cl)c2)C3)cc1` [Compound C452b], the EC50 in series [1] (setting [2]) was over 10 µM. Also, the CC50 in the series on HepG2 cells (setting [3]) was over 50 µM.

With `CC(C)Nc1nc2c(c(=O)n1-c1ccc(-c3ncc[nH]3)cc1Cl)C[C@@H](C)N(C(=O)c1ccc(Cl)c(Cl)c1)C2` [Compound C393], in series [1] (Hepatitis B virus, HepG2.117, 72 h, HepG2.117 cells, intracellular HBV DNA by real-time PCR, 3 days of treatment, mean value; read-out: EC50 (μM, mean value)), the concentration for a half-maximal effect (EC50) turned out to be 0.17 µM. The CC50 in the series on HepG2 cells (setting [3]) came out at 24.1 µM.

Consider `CNC(=O)c1ccc(-n2c(NC(C)C)nc3c(c2=O)C[C@@H](C)N(C(=O)c2ccc(Cl)c(Cl)c2)C3)c(Cl)c1` (single isomer, unassigned) [Compound C293a], for which the EC50 in series [1] (setting [4]) was 0.06 µM. For the same compound, the CC50 with HepG2 cells (setting [5]) came to 33.4 µM.

As to `CNC(=O)c1ccc(-n2c(N[C@@H](C)c3ccccc3)nc3c(c2=O)C[C@@H](C)N(C(=O)c2ccc(Cl)c(Cl)c2)C3)c(Cl)c1` [Compound C386], in series [1] (setting [2]), the EC50 was 0.12 µM. Besides, in the series with HepG2 cells (setting [3]), the CC50 was over 50 µM.

For `CNC(=O)c1ccc(-n2c(N[C@@H](C)C3CC3)nc3c(c2=O)C[C@@H](C)N(C(=O)c2ccc(Cl)c(Cl)c2)C3)c(Cl)c1` (single isomer, unassigned) [Compound C387b], the EC50 in series [1] (setting [2]) is 0.06 µM. Further, the CC50 with HepG2 cells (setting [3]) was determined as 36.8 µM.

For `CC(C)Nc1nc2c(c(=O)n1-c1ccc(S(C)(=O)=O)cc1)C[C@@H](C)N(C(=O)c1ccc(Cl)c(Cl)c1)C2` [Compound C142, (6R)-7-(3,4-dichlorobenzoyl)-3-[4-(methanesulfonyl)phenyl]-6-methyl-2-[(propan-2-yl)amino]-5,6,7,8-tetrahydropyrido[3,4-d]pyrimidin-4(3H)-one], the EC50 in series [1] (setting [4]) was 0.12 µM. For the same compound, the CC50 with HepG2 cells (setting [5]) is over 50 µM.

Take `CNC(=O)c1ccc(-n2c(NC(C)C)nc3c(c2=O)C[C@@H](C)N(C(=O)c2ccc(Cl)c(C(F)(F)F)c2)C3)c(C2CC2)c1` (single isomer, unassigned) [Compound C661b]: the EC50 in series [1] (setting [2]) amounted to 0.06 µM. In the series on HepG2 cells (setting [3]), the CC50 came to 25.4 µM.

For `CNC(=O)c1ccc(-n2c(N[C@@H](C)C3CC3)nc3c(c2=O)C[C@@H](C)N(C(=O)c2ccc(Cl)c(Cl)c2)C3)c(Cl)c1` [Compound C387], the EC50 in series [1] (setting [2]) was 0.06 µM. Moreover, the CC50 with HepG2 cells (setting [3]) was 38 µM.

With `CNC(=O)c1ccc(-n2c(N3CC4CC3C4)nc3c(c2=O)C[C@@H](C)N(C(=O)c2ccc(Cl)c(C(F)(F)F)c2)C3)c(Cl)c1` (single isomer, unassigned) [Compound C701b], the EC50 in series [1] (setting [4]) was determined as 0.03 µM. Also, the CC50 in the series with HepG2 cells (3-days incubation (unmarked values), ATPlite viability) was 25.4 µM.
